In assay [1] the target is MMP-13 (Homo sapiens, UniProt P45452). The assay can be described thus: MMP inhibition assay, fluorogenic substrate FS-6. In kind it is biochemical. Conditions: MMP-13 0.3 nM, inhibitor incubated 4 h at 25° C., substrate Mca-Lys-Pro-Leu-Gly-Leu-Dap(Dnp)-Ala-Arg-NH2 2 μM. How it is done:
(§1) As reported therein, the inhibitory activity of the compounds of the invention was evaluated on the known fluorogenic substrate (Mca-Lys-Pro-Leu-Gly-Leu-Dpa-Ala-Arg-NH2), shortly referred to as FS-6 (see, as a reference, U. Neumann, Analytical Biochem. 2004, 328, 166-173).
(§2) Recombinant human progelatinase A (pro-MMP-2) and B (pro-MMP-9) from transfected mouse myeloma cells, MMP-16 and MMP-14 catalytic domains were supplied by Prof. Gillian Murphy (Department of Oncology, University of Cambridge, UK). Pro-MMP-1, pro-MMP-8, pro-MMP-3 and pro-MMP-13 were purchased from Calbiochem, MMP-12 was furnished from RDSystems.
(§3) Pro-MMP-3 was activated with trypsin 5 μg/mL for 30 min at 37 C.° followed by soybean trypsin inhibitor (SBTI) 62 μg/mL.
(§4) For assay measurements, the inhibitor stock solutions (DMSO, 100 mM) were further diluted, at 7 different concentrations (0.01 nM-300 μM) for each MMP in the fluorimetric assay buffer (FAB: Tris 50 mM, pH=7.5, NaCl 150 mM, CaCl2 10 mM, Brij 35 0.05% and DMSO 1%). Activated enzyme (final concentration 2.9 nM for MMP-2, 2.7 nM for MMP-9, 1.5 nM for MMP-8, 0.3 nM for MMP-13, 5 nM for MMP-3, 1 nM for MMP-14cd, 15 nM for MMP-16cd and 2.0 nM for MMP-1, 1 nM for MMP12) and inhibitor solutions were incubated in the assay buffer for 4 h at 25° C. After the addition of 200 μM solution of the fluorogenic substrate Mca-Arg-Pro-Lys-Pro-Val-Glu-Nva-Trp-Arg-Lys(Dnp)-NH2 (Sigma) for MMP-3 and Mca-Lys-Pro-Leu-Gly-Leu-Dap(Dnp)-Ala-Arg-NH2 (Bachem) (Neumann, U.; Kubota, H.; Frei, K.; Ganu, V.; Leppert, D. Anal. Biochem. 2004, 328, 166) for all the other enzymes in DMSO (final concentration 2 μM), the hydrolysis was monitored every 15 sec. for 20 min. recording the increase in fluorescence (λex=325 nm, λem=395 nm) using a Molecular Device SpectraMax Gemini XS plate reader. The assays were performed in triplicate in a total volume of 200 μl per well in 96-well microtitre plates (Corning, black, NBS). Control wells lack inhibitor. The MMP inhibition activity was expressed in relative fluorescent units (RFU). Percent of inhibition was calculated from control reactions without the inhibitor. IC50 was determined using the formula: Vi/Vo=1/(1+[I]/IC50), where Vi is the initial velocity of substrate cleavage in the presence of the inhibitor at concentration [I] and Vo is the initial velocity in the absence of the inhibitor. Results were analyzed using SoftMax Pro software and GraFit software.

Assay [2] addresses T1, MMP-2 (Homo sapiens, UniProt P08253).
T1 sequence (P08253 110-660): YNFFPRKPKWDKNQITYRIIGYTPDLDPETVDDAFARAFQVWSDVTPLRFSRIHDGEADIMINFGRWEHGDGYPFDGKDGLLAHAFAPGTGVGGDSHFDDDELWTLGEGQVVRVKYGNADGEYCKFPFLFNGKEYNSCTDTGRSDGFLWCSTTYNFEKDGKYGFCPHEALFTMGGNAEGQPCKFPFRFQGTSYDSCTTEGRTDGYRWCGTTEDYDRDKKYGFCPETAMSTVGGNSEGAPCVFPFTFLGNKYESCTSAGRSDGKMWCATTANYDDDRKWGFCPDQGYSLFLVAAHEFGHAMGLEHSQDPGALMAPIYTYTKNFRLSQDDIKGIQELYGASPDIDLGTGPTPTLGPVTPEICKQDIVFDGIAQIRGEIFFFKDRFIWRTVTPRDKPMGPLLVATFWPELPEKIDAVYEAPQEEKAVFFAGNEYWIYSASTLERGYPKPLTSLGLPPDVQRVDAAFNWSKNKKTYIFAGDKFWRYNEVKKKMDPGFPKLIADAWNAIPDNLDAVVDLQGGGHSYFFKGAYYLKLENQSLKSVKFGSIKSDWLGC
Nature of the assay: MMP inhibition assay, fluorogenic substrate FS-6. Further details: purchased supplied by Prof; Gillian Murphy (Department of Oncology, University of Cambridge, UK); host or cells: transfected mouse myeloma cells. As to conditions: activated pro-MMP-2 2.9 nM, inhibitor incubated 4 h at 25° C., substrate Mca-Lys-Pro-Leu-Gly-Leu-Dap(Dnp)-Ala-Arg-NH2 2 μM. The assay is classed as biochemical. How it is done: as §1, §2, §3, §4

The target of assay [3] is T2, MMP-9 (Homo sapiens, UniProt P14780).
T2 construct: purchased supplied by Prof; Gillian Murphy (Department of Oncology, University of Cambridge, UK); host or cells: transfected mouse myeloma cells
T2 sequence (P14780 107-707 limits assumed): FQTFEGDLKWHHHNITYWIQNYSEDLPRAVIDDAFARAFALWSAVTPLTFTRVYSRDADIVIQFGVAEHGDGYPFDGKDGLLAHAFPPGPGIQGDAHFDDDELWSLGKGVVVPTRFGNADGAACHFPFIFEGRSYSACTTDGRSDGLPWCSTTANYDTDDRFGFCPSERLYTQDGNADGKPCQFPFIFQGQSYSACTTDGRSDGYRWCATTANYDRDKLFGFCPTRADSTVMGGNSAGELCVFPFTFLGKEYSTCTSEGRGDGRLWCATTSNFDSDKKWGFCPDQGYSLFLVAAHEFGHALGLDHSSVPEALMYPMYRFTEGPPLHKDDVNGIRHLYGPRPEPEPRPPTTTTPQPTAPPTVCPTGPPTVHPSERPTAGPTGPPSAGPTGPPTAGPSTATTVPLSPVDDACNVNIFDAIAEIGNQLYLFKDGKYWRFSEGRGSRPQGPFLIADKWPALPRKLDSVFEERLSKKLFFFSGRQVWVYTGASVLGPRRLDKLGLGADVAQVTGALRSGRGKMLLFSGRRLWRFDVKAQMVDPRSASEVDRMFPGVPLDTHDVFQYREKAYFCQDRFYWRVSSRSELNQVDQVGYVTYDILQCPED
The assay can be described thus: MMP inhibition assay, fluorogenic substrate FS-6. The assay is classed as biochemical. As to conditions: MMP-9 2.7 nM, inhibitor incubated 4 h at 25° C., substrate Mca-Lys-Pro-Leu-Gly-Leu-Dap(Dnp)-Ala-Arg-NH2 2 μM. As to the method: as §1, §2, §3, §4

Assay [4] deals with T3, MMP-8 (Homo sapiens, UniProt P22894).
T3 construct: purchased Calbiochem
T3 sequence (P22894 101-467): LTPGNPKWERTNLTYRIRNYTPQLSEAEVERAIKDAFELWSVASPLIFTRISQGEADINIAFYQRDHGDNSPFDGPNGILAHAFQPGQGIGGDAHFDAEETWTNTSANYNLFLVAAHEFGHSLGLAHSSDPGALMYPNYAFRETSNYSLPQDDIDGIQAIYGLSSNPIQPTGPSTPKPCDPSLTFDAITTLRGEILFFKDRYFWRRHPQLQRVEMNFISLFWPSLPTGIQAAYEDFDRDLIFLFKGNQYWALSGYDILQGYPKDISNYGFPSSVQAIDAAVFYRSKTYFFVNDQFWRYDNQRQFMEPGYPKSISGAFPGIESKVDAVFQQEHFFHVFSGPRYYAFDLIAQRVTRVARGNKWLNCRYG
The assay can be described thus: MMP inhibition assay, fluorogenic substrate FS-6. Conditions: MMP-8 1.5 nM, inhibitor incubated 4 h at 25° C., substrate Mca-Lys-Pro-Leu-Gly-Leu-Dap(Dnp)-Ala-Arg-NH2 2 μM. In kind it is biochemical. How it is done:
as §1, §2, §3, §4

The target of assay [5] is T4, MMP-3 (Homo sapiens, UniProt P08254).
T4 construct: purchased Calbiochem
T4 sequence (P08254 100-477): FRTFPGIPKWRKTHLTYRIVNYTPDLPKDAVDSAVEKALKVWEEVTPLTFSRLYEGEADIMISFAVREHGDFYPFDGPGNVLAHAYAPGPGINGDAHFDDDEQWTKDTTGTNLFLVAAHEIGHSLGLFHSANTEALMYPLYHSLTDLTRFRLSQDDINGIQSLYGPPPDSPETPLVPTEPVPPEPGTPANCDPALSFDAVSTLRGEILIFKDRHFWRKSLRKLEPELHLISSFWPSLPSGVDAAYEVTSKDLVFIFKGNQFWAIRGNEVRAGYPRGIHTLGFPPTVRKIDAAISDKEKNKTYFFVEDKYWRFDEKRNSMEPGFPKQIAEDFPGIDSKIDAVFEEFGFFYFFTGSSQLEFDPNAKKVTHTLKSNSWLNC
Nature of the assay: MMP inhibition assay, fluorogenic substrate. In kind it is biochemical. Conditions: MMP-3 5 nM, inhibitor incubated 4 h at 25° C., substrate Mca-Arg-Pro-Lys-Pro-Val-Glu-Nva-Trp-Arg-Lys(Dnp)-NH2. How it is done: as §2, §3
as §4, with “The MMP inhibition activity was expressed in relative fluorescent units (RFU).” left out

Assay [6] concerns the target T5, MMP-16 catalytic domain (Homo sapiens, UniProt P51512).
T5 construct: MMP-16 and MMP-14 catalytic domains were supplied by Prof; Gillian Murphy; purchased supplied by Prof; Gillian Murphy (Department of Oncology, University of Cambridge, UK)
Nature of the assay: MMP inhibition assay, fluorogenic substrate FS-6. In kind it is biochemical. Conditions: MMP-16cd 15 nM, inhibitor incubated 4 h at 25° C., substrate Mca-Lys-Pro-Leu-Gly-Leu-Dap(Dnp)-Ala-Arg-NH2 2 μM. How it is done:
as §1, §2, §4

Assay [7] has as its target T6, MMP-14 catalytic domain (Homo sapiens, UniProt P50281).
T6 construct: MMP-16 and MMP-14 catalytic domains were supplied by Prof; Gillian Murphy; purchased supplied by Prof; Gillian Murphy (Department of Oncology, University of Cambridge, UK)
Nature of the assay: MMP inhibition assay, fluorogenic substrate FS-6. The assay is classed as biochemical. Conditions: MMP-14cd 1 nM, inhibitor incubated 4 h at 25° C., substrate Mca-Lys-Pro-Leu-Gly-Leu-Dap(Dnp)-Ala-Arg-NH2 2 μM. As to the method: as §1, §2, §4

Assay [8] addresses T7, MMP-12 (Homo sapiens, UniProt P39900).
T7 construct: purchased RDSystems
The assay can be described thus: MMP inhibition assay, fluorogenic substrate FS-6. As to conditions: MMP12 1 nM, inhibitor incubated 4 h at 25° C., substrate Mca-Lys-Pro-Leu-Gly-Leu-Dap(Dnp)-Ala-Arg-NH2 2 μM. The assay is classed as biochemical. How it is done: as §1, §2, §4

Assay [9] addresses T1, MMP-2. As to conditions: isolated enzyme, fluorogenic substrate FS-1, literature value; cited from earlier work.
The target of assay [10] is MMP-14 (Homo sapiens, UniProt P50281). As to conditions: isolated enzyme, fluorogenic substrate FS-1, literature value; cited from earlier work.

Molecules are shown by their SMILES. Read-outs that look alike come from different tables or passages of the source.

T7 sequence (P39900 106-470): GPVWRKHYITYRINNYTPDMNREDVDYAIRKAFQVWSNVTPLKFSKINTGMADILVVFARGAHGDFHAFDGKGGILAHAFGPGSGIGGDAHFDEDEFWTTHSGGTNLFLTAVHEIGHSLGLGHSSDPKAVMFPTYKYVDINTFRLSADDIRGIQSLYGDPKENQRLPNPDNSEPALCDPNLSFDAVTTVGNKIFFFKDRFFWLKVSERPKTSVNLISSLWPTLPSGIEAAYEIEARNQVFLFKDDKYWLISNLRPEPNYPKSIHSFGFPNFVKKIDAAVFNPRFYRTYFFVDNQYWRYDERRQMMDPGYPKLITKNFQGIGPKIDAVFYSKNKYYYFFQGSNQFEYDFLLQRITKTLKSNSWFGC
T5 sequence (P51512 120-292 limits assumed): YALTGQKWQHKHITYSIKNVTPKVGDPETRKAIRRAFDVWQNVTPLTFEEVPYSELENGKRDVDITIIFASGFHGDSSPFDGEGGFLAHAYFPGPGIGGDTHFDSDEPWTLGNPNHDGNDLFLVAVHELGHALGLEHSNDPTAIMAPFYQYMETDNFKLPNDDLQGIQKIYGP

As to `CC[N+]1=C(/C=C/C=C/C=C2\N(CCCCCC(=O)N3CCN(CCOCCON([C@H](CCNC(=O)OCc4ccccc4)C(=O)O)S(=O)(=O)c4ccc(-c5ccc(OC)cc5)cc4)CC3)c3ccc4c(S(=O)(=O)[O-])cc(S(=O)(=O)O)cc4c3C2(C)C)C(C)(C)c2c1ccc1c(S(=O)(=O)O)cc(S(=O)(=O)O)cc21` [Compound 6a], the IC50 in assay [1] stood at 50 ± 4.3 nM; in assay [2] it was 73.5 ± 5.7 nM.

`CC[N+]1=C(/C=C/C=C/C=C2/N(CCCCCC(=O)N3CCN(CCOCCON([C@H](CCNC(=O)OCc4ccccc4)C(=O)NO)S(=O)(=O)c4ccc(-c5ccc(OC)cc5)cc4)CC3)c3ccc4c(S(=O)(=O)O)cc(S(=O)(=O)O)cc4c3C2(C)C)C(C)(C)c2c1ccc1c(S(=O)(=O)[O-])cc(S(=O)(=O)O)cc21` [Compound 6b]: the IC50 in assay [3] was 3.3 ± 0.1 nM; in assay [1] it was 0.17 ± 0.02 nM; in assay [4], 6.5 ± 0.6 nM; in assay [5], 53 ± 4.5 nM; in [2], 0.6 ± 0.06 nM; in assay [6], 30 ± 2.3 nM. The IC50 in [7] is 67 ± 3.4 nM; in [8] it was 0.67 ± 0.06 nM.

As for `CC(C)ON(C(CCNC(=O)OCc1ccccc1)C(=O)NO)S(=O)(=O)c1ccc(-c2ccccc2)cc1` (centres unmarked) [compound (5b)], the values for the IC50 in [9] and in [10] were 0.41 nM and 7.7 nM, respectively.

With `CCC(=O)N1CCN(CCOCCON([C@H](CCNC(=O)OCc2ccccc2)C(=O)NO)S(=O)(=O)c2ccc(-c3ccc(OC)cc3)cc2)CC1` [1k], the IC50 in assay [3] is 187 ± 11 nM; in assay [1], 24.4 ± 2.5 nM; in [5], 1990 ± 90 nM; in assay [2] it was 47.9 ± 4.9 nM; in assay [6], 1260 ± 59 nM; in assay [7], 1700 ± 305 nM. This compound had an IC50 in [8] of 22 ± 4 nM.

As for `COc1ccc(-c2ccc(S(=O)(=O)N(OCCOCCN3CCNCC3)[C@H](CCNC(=O)OCc3ccccc3)C(=O)NO)cc2)cc1` [1j], the IC50 in assay [3] was determined as 1.7 ± 0.14 nM; in [4] it was 3.2 ± 0.2 nM; in [5] it was 39 ± 3.3 nM; in assay [6], 10 ± 1 nM; in assay [8] it was 0.4 ± 0.05 nM.

For `CC[N+]1=C(/C=C/C=C/C=C2/N(CCCCCC(=O)NCC[C@H](C(=O)NO)N(OC(C)C)S(=O)(=O)c3ccc(-c4ccc(OC)cc4)cc3)c3ccc4c(S(=O)(=O)O)cc(S(=O)(=O)O)cc4c3C2(C)C)C(C)(C)c2c1ccc1c(S(=O)(=O)[O-])cc(S(=O)(=O)O)cc21` [Compound 5], the figures for the half-maximal inhibitory concentration (IC50) in assay [1] and in [2] were 82 ± 13 nM and 56 ± 8 nM, respectively.

One may read the IC50 as the concentration that inhibits the measured activity by half.

The values are drawn from patent publication US9480758B2, “Diagnostic agents selective against metalloproteases” (BRACCO IMAGING S.P.A., priority 2008, dated 2016).
